The text below walks through data of patent publication US20250361230A1, “LATS Inhibitors and Uses Thereof” (The USA, as Represented by the Secretary, Dept. of Heath …, priority 2022, published 2025).

pIC50: −log10 of the molar value. Some results are limits rather than exact numbers.

The target of one assay is T1, LATS2 (Homo sapiens, UniProt Q9NRM7).
T1 sequence (Q9NRM7 1-1088): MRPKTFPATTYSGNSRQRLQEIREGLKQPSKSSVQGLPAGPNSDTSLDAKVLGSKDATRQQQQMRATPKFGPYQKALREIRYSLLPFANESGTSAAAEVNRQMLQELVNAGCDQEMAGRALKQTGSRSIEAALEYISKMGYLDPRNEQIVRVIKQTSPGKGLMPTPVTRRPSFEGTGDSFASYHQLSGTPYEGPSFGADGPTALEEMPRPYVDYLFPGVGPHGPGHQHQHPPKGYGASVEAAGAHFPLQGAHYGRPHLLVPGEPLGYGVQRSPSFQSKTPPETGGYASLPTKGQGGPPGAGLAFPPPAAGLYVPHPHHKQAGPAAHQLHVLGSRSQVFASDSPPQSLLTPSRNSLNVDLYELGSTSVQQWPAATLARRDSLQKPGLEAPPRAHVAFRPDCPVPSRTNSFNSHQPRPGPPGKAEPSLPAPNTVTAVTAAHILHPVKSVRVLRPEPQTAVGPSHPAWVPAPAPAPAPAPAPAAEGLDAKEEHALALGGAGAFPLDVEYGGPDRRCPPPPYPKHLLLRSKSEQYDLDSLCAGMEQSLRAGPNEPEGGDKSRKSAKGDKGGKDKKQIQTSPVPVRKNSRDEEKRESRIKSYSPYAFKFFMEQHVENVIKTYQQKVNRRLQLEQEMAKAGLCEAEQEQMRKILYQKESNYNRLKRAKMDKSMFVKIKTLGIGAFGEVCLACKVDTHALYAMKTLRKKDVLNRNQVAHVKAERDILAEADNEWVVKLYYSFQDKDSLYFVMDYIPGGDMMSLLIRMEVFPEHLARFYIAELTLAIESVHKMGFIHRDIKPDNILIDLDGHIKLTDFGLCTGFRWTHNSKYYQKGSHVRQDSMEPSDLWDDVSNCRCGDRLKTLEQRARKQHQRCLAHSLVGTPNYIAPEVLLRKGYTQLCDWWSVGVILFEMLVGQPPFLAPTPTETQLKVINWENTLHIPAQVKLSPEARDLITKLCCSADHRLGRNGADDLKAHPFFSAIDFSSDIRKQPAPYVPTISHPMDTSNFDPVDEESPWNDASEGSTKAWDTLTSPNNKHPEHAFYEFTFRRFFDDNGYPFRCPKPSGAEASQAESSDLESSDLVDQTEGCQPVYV
In words: RBC HotSpot kinase assay (33P-ATP, P81 filter-binding), LATS2. Particulars: Table 28, biochemical kinase assay; read-out: LATS2 IC50. It is filed as biochemical. Put shortly:
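IC50 in nM was derived from 10-point, single-replicate titrations. Read-out was radiometric P81 filter binding following a 2 h room-temperature reaction with 33P-ATP, after 20 min compound preincubation.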
On to `Cc1cc(-c2ccnc3[nH]cc(F)c23)cc(F)c1[C@@]1(O)[C@H](C)CN(C(=O)[C@@H](CO)N(C)C)C[C@@H]1C` [Compound 313, (R)-2-(dimethylamino)-1-((3S,4S,5R)-4-(2-fluoro-4-(3-fluoro-1H-pyrrolo[2,3-b]pyridin-4-yl)-6-methylphenyl)-4-hydroxy-3,5-dimethylpiperidin-1-yl)-3-hydroxypropan-1-one], for which the pIC50 (in general, the IC50 on a negative log10 scale, so that one unit is a factor of ten) was 8.80.

For `OC1(c2ccc(-c3ccnc4[nH]cc(F)c34)cc2)CC2(CNC2)C1` [Compound 319, 6-(4-(3-fluoro-1H-pyrrolo[2,3-b]pyridin-4-yl)phenyl)-2-azaspiro[3.3]heptan-6-ol], the pIC50 was 7.53.

The same assay, now with this note: Table 32, biochemical kinase assay; read-out: LATS2 IC50.
Take `NCC(O)(c1ccc(Cl)cc1)c1ccc(-c2ccnc3[nH]ccc23)cc1` (stereo not shown) [Compound 1001, 1-(4-(1H-pyrrolo[2,3-b]pyridin-4-yl)phenyl)-2-amino-1-(4-chlorophenyl)ethan-1-ol]: the pIC50 is 8.68.

`NCC(O)(c1ccc(Cl)cc1)c1ccc(-c2ccnc3[nH]cc(F)c23)cc1` (stereo not shown) [Compound 1002, 2-amino-1-(4-chlorophenyl)-1-(4-(3-fluoro-1H-pyrrolo[2,3-b]pyridin-4-yl)phenyl)ethan-1-ol]: the pIC50 was 7.95.

With `COC(=O)c1c[nH]c2nccc(-c3ccc(C(O)(CN)c4ccc(Cl)cc4)cc3)c12` (stereo not shown) [Compound 1004, Methyl 4-(4-(2-amino-1-(4-chlorophenyl)-1-hydroxyethyl)phenyl)-1H-pyrrolo[2,3-b]pyridine-3-carboxylate], the pIC50 is 8.28.

For `NCC(O)(c1ccc(Cl)cc1)c1ccc(-c2ccnc3[nH]cc(Br)c23)cc1` (stereo not shown) [Compound 1005, 2-amino-1-(4-(3-bromo-1H-pyrrolo[2,3-b]pyridin-4-yl)phenyl)-1-(4-chlorophenyl)ethan-1-ol], the pIC50 is 8.05.

For the compound `NCC(O)(c1ccc(Cl)cc1)c1ccc(-c2ccnc3[nH]cc(-c4ccccc4)c23)cc1` (stereo not shown) [Compound 1006, 2-amino-1-(4-chlorophenyl)-1-(4-(3-phenyl-1H-pyrrolo[2,3-b]pyridin-4-yl)phenyl)ethan-1-ol], the negative logarithm of the IC50 (pIC50) was 7.70.

Regarding `NCC(O)(c1ccc(Cl)cc1)c1ccc(-c2ccnc3[nH]cc(-c4cccnc4)c23)cc1` (stereo not shown) [Compound 1007, 2-amino-1-(4-chlorophenyl)-1-(4-(3-(pyridin-3-yl)-1H-pyrrolo[2,3-b]pyridin-4-yl)phenyl)ethan-1-ol], the pIC50 was 8.21.

Consider `NCC(O)(c1ccc(Cl)cc1)c1ccc(-c2ccnc3[nH]cc(Br)c23)nc1` (stereo not shown) [Compound 1011, 2-amino-1-(6-(3-bromo-1H-pyrrolo[2,3-b]pyridin-4-yl)pyridin-3-yl)-1-(4-chlorophenyl)ethan-1-ol], for which the pIC50 was more than 9.30.

In the case of `NCC(=O)NCC(O)(c1ccc(Cl)cc1)c1ccc(-c2ccnc3[nH]cc(Cl)c23)cc1` (stereo not shown) [Compound 1021, 2-amino-N-(2-(4-(3-chloro-1H-pyrrolo[2,3-b]pyridin-4-yl)phenyl)-2-(4-chlorophenyl)-2-hydroxyethyl) acetamide], the pIC50 is 8.80.

Staying with this assay, now noted: biochemical kinase inhibition; read-out: LATS2 IC50.
On to `Cc1cc(-c2ccnc3[nH]cc(C#N)c23)cc(F)c1[C@@]1(O)[C@H](C)CN(C2CCS(=O)(=O)CC2)C[C@@H]1C` [Compound 2002, 4-(4-((3S,4s,5R)-1-(1,1-dioxidotetrahydro-2H-thiopyran-4-yl)-4-hydroxy-3,5-dimethylpiperidin-4-yl)-3-fluoro-5-methylphenyl)-1H-pyrrolo[2,3-b]pyridine-3-carbonitrile], for which the pIC50 is 8.34.

Regarding `Cc1cc(-c2ccnc3[nH]cc(C#N)c23)cc(F)c1[C@@]1(O)[C@H](C)CN(C(=O)CN)C[C@@H]1C` [Compound 2004, 4-(3-fluoro-4-((3S,4s,5R)-1-glycyl-4-hydroxy-3,5-dimethylpiperidin-4-yl)-5-methylphenyl)-1H-pyrrolo[2,3-b]pyridine-3-carbonitrile], the pIC50 is 8.70.

`Cc1cc(-c2ccnc3[nH]cc(C#N)c23)ccc1[C@@]1(O)[C@H](C)CN(C(=O)CN)C[C@@H]1C` [Compound 2005, 4-(4-((3S,4s,5R)-1-glycyl-4-hydroxy-3,5-dimethylpiperidin-4-yl)-3-methylphenyl)-1H-pyrrolo[2,3-b]pyridine-3-carbonitrile]: the pIC50 is 8.92.

For the compound `Cc1cc(-c2ccnc3[nH]cc(C#N)c23)cc(F)c1[C@@]1(O)[C@H](C)CN(C(=O)[C@H](N)CO)C[C@@H]1C` [Compound 2007, 4-(4-((3S,4S,5R)-1-(D-seryl)-4-hydroxy-3,5-dimethylpiperidin-4-yl)-3-fluoro-5-methylphenyl)-1H-pyrrolo[2,3-b]pyridine-3-carbonitrile], the pIC50 was 8.28.

Turning to `Cc1cc(-c2ccnc3[nH]cc(C#N)c23)cc(F)c1[C@@]1(O)[C@H](C)CN(C(=O)[C@](C)(N)CO)C[C@@H]1C` [Compound 2008, 4-(4-((3S,4s,5R)-1-(2-amino-3-hydroxy-2-methylpropanoyl)-4-hydroxy-3,5-dimethylpiperidin-4-yl)-3-fluoro-5-methylphenyl)-1H-pyrrolo[2,3-b]pyridine-3-carbonitrile], the pIC50 is 8.26.

For the compound `Cc1cc(-c2ccnc3[nH]cc(C#N)c23)cc(F)c1[C@@]1(O)[C@H](C)CN(C(=O)[C@H](C)N)C[C@@H]1C` [Compound 2011, 4-(4-((3S,4R,5R)-1-(L-alanyl)-4-hydroxy-3,5-dimethylpiperidin-4-yl)-3-fluoro-5-methylphenyl)-1H-pyrrolo[2,3-b]pyridine-3-carbonitrile], the pIC50 is 7.80.

Turning to `CNCC(=O)N1C[C@@H](C)[C@](O)(c2c(C)cc(-c3ccnc4[nH]cc(C#N)c34)cc2F)[C@@H](C)C1` [Compound 2012, 4-(3-fluoro-4-((3S,4s,5R)-4-hydroxy-3,5-dimethyl-1-(methylglycyl)piperidin-4-yl)-5-methylphenyl)-1H-pyrrolo[2,3-b]pyridine-3-carbonitrile], the pIC50 was 8.54.

As for `Cc1cc(-c2ccnc3[nH]cc(C#N)c23)cc(F)c1[C@@]1(O)[C@H](C)CN(C(=O)CNCC(F)(F)F)C[C@@H]1C` [Compound 2014, 4-(3-fluoro-4-((3S,4s,5R)-4-hydroxy-3,5-dimethyl-1-((2,2,2-trifluoroethyl)glycyl)piperidin-4-yl)-5-methylphenyl)-1H-pyrrolo[2,3-b]pyridine-3-carbonitrile], the pIC50 was 8.22.

`Cc1cc(-c2ccnc3[nH]cc(C#N)c23)cc(F)c1[C@@]1(O)[C@H](C)CN(C(=O)[C@@H](C)N)C[C@@H]1C` [Compound 2015, 4-(4-((3S,4S,5R)-1-(D-alanyl)-4-hydroxy-3,5-dimethylpiperidin-4-yl)-3-fluoro-5-methylphenyl)-1H-pyrrolo[2,3-b]pyridine-3-carbonitrile]: the pIC50 was 8.70.

As for `Cc1cc(-c2ccnc3[nH]cc(C#N)c23)cc(F)c1[C@@]1(O)[C@H](C)CN(C(=O)C(N)C(F)(F)F)C[C@@H]1C` (stereo partly drawn) [Compound 2017, 4-(4-((3S,4s,5R)-1-(2-amino-3,3,3-trifluoropropanoyl)-4-hydroxy-3,5-dimethylpiperidin-4-yl)-3-fluoro-5-methylphenyl)-1H-pyrrolo[2,3-b]pyridine-3-carbonitrile], the pIC50 was 8.16.

For `Cc1cc(-c2ccnc3[nH]cc(C#N)c23)cc(F)c1[C@@]1(O)[C@H](C)CN(C(=O)[C@H](CO)N(C)C)C[C@@H]1C` [Compound 2023, 4-(4-((3S,4R,5R)-1-(dimethyl-L-seryl)-4-hydroxy-3,5-dimethylpiperidin-4-yl)-3-fluoro-5-methylphenyl)-1H-pyrrolo[2,3-b]pyridine-3-carbonitrile], the pIC50 is 8.54.

Consider `Cc1cc(-c2ccnc3[nH]cc(C#N)c23)cc(F)c1[C@@]1(O)[C@H](C)CNC[C@@H]1C` [Compound 2024, 4-(3-fluoro-4-((3S,4s,5R)-4-hydroxy-3,5-dimethylpiperidin-4-yl)-5-methylphenyl)-1H-pyrrolo[2,3-b]pyridine-3-carbonitrile], for which the pIC50 was 8.38.
